Test results from article PMC5522529, “Mechanisms of Paradoxical Activation of AMPK by the Kinase Inhibitors SU6656 and Sorafenib” (Cell Chemical Biology, 2017).

Key:
α2-KD A156T (AT) mutant = biological target: T1, α2-KD A156T (AT) mutant (Homo sapiens, UniProt P54646, A156T); assay: Activation and phosphorylation of unphosphorylated α2-KD AT mutant by LKB1; type: biochemical
T1 construct: amplifying residues 1-310 with 5' BamH1 and 3' Xho1 sites; made in house; host or cells: bacteria
Excerpt: (B) Effect of ATP concentration on kinase activity of α2-KD in the presence of increasing concentrations of SU6656. Results (mean, n = 2) were fitted to the equation Y= (Vmax × X)/(Km × (1 + I/Ki) + X), where Y is the activity, X is the ATP concentration, I is the concentration of SU6656, and Ki is the inhibitory constant for SU6656. […] (D and E) Effect of increasing concentrations of SU6656 on activity (D) and Thr172 phosphorylation (E) induced by LKB1 with unphosphorylated α2-KD (WT/AT mutant). Results in (D) are mean ± SEM (n = 3); and were fitted to same equation as Figure 4C. […] See also Figure S3. (F) Effect of AMP (2 mM) and SU6656 on inactivation of AMPK by PP2Cα in the presence of 5 mM ATP. […] (G) Effects of AMP or SU6656 on activation (top) and Thr172 phosphorylation (bottom) by LKB1 of AMPK-γ1 complexes expressed in HeLa cells. FLAG-tagged AMPK-γ1, either wild-type (WT) or R299G mutant (RG), was expressed in HeLa cells and AMPK complexes precipitated using anti-FLAG antibody. The complexes (which have low basal phosphorylation due to lack of LKB1 in HeLa cells) were incubated with or without a limiting amount of LKB1, AMP (200 μM) or SU6656 (3 μM) for 10 min and AMPK activity determined.
We next used unphosphorylated α2-KD and tested the effect of SU6656 on its activation and phosphorylation by LKB1.

AMPK = AMPK activity in HeLa cells stably expressing LKB1; type: cell-based, human; details: HeLa cells expressing LKB1, 100 μM, 1 hr
Procedure: Figure 1 SU6656 Activates AMPK but Not AMPK-Related Kinases (A) HEK293 cells were incubated with the indicated concentrations of SU6656 or berberine (300 μM) for 1 hr; total AMPK activity was assayed in immunoprecipitates (top; mean ± SEM, n = 4), and phosphorylation of AMPK (Thr172), ACC (Ser80), and Raptor (Ser792) analyzed by western blotting (bottom; n = 2). (B) HEK293 cells were incubated with 100 μM SU6656 (1 hr), AMPK complexes containing α1, α2, β1, and β2 immunoprecipitated using isoform-specific antibodies, and AMPK activity measured (mean ± SEM, n = 4). (C) HeLa cells stably expressing LKB1 ([Fogarty et al., 2010]) were incubated with 100 μM SU6656 for 1 hr, AMPK or individual ARKs immunoprecipitated, and kinase assays carried out (antibodies that distinguish MARK2/MARK3 were not available, so they were assayed together). Results are means ± SEM (n = 2). In all panels, asterisks indicate significant differences from controls without SU6656. *p < 0.05, **p < 0.01, ****p < 0.0001. […]

human AMPK-α2 (WT) = human AMPK-α2 (WT) (Homo sapiens, UniProt P54646); assay: AMPK activity of FLAG-tagged WT AMPK-α2 expressed in HEK293 cells; type: cell-based; details: SU6656 100 μM, phenformin 10 mM, A23187 10 μM, 1 hr
Procedure: Top: AMPK activity (mean ± SEM, n = 4); bottom: western blots showing phosphorylation of Thr172 on AMPK, and of ERK1/2, in cells treated with DMSO (control), SU6656 (100 μM), or PP2 (100 nM) (n = 2). (B) As (A), but in SYF cells. (C) HeLa cells were transfected with DNAs encoding GFP alone, or GFP fused to WT, Y261F/Y365F (FF), or Y36F/Y261F/Y365F (FFF) mutants of LKB1; cells were treated with increasing concentrations of SU6656 for 1 hr and AMPK activity determined (mean ± SEM, n = 4). See also Figure S1. (D) HEK293 cells were transfected with DNAs encoding FLAG-tagged AMPK-α2 with or without a Y436F mutation. Cells were incubated with DMSO (control), 100 μM SU6656, 10 mM phenformin, or 10 μM A23187 for 1 hr; AMPK complexes were immunoprecipitated using anti-FLAG antibody and assayed. The top panels show kinase activities (mean ± SD, n = 3); the bottom panels show blots from the same experiment (n = 2). In all panels, asterisks indicate significant differences from DMSO controls; in (D), there were no significant differences between the WT and Y463F mutant. **p < 0.01, ****p < 0.0001.

AMPK-α1 AT mutant = biological target: T2, AMPK-α1 AT mutant (Homo sapiens, UniProt Q13131, A167T); assay: AMPK activity of FLAG-tagged AMPK-α1 AT mutant expressed in HEK293 cells; type: cell-based; details: AT mutant FLAG-α1, 1 hr
T2 construct: we expressed FLAG-tagged full-length AMPK-α1 either as the WT or the AT mutant; expressed in transfected cells; host or cells: HEK293 (transient transfection)
Excerpt: The α1-KD was precipitated using anti-FLAG and endogenous AMPK complexes using anti-α1 antibody, and activity determined. Results (mean ± SD, n = 2) are expressed relative to activities in DMSO controls. (B) Western blots (n = 2) using the indicated antibodies; samples from experiment in (A). (C) DNAs encoding FLAG-tagged AMPK-α1 (WT or AT mutant) were expressed by transient transfection in HEK293 cells, the cells treated with increasing concentrations of SU6656 for 1 hr, AMPK complexes precipitated with anti-FLAG, and activity measured. Results (mean ± SD, n = 3) are expressed relative to the DMSO control. […] Results (mean ± SD, n = 3) are expressed relative to the DMSO control. **p < 0.01, ***p < 0.001, ****p < 0.0001, ^†††p < 0.001; ns, not significant.
To confirm that it acted by binding at the catalytic site, we expressed FLAG-tagged full-length AMPK-α1 either as the WT or the AT mutant.

mice = system: mice; parameters: method as in Yamada et al., 2010; details: ref Yamada et al., 2010; cited from earlier work

T1 sequence (P54646 1-310 A156T): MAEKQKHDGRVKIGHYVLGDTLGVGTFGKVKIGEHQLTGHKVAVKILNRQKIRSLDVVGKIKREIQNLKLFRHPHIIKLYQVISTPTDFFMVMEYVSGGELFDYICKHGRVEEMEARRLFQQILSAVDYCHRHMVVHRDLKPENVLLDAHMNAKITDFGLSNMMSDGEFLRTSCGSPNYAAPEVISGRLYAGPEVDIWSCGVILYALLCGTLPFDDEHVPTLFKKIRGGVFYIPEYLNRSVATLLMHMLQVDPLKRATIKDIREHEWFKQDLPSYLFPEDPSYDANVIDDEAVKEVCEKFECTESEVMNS
human AMPK-α2 (WT), sequence (P54646 whole entry, the tested form may be a part): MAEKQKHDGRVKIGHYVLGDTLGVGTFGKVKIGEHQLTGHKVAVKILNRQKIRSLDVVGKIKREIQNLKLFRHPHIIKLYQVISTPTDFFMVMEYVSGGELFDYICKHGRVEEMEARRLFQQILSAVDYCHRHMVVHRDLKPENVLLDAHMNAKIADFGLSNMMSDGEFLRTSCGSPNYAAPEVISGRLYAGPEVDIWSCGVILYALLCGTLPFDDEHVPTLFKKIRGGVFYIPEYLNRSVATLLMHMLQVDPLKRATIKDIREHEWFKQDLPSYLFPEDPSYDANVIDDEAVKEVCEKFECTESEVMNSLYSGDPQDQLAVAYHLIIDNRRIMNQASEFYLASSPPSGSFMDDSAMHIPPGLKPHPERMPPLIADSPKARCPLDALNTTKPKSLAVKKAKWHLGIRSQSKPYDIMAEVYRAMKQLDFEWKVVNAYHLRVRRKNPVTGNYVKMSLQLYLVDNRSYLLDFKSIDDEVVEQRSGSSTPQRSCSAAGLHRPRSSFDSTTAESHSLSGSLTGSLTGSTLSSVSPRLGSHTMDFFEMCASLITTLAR
human AMPK-α2 (WT), sequence (P54619 whole entry partner, the tested form may be a part): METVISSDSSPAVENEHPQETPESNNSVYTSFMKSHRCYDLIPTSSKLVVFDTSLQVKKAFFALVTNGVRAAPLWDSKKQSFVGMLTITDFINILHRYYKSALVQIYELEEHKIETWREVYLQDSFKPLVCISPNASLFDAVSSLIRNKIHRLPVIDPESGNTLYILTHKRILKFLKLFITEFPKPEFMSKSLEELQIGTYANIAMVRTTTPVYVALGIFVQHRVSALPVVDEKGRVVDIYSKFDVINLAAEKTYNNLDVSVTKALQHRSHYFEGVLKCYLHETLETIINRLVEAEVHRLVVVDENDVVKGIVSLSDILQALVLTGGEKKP
T2 sequence (Q13131 whole entry A167T): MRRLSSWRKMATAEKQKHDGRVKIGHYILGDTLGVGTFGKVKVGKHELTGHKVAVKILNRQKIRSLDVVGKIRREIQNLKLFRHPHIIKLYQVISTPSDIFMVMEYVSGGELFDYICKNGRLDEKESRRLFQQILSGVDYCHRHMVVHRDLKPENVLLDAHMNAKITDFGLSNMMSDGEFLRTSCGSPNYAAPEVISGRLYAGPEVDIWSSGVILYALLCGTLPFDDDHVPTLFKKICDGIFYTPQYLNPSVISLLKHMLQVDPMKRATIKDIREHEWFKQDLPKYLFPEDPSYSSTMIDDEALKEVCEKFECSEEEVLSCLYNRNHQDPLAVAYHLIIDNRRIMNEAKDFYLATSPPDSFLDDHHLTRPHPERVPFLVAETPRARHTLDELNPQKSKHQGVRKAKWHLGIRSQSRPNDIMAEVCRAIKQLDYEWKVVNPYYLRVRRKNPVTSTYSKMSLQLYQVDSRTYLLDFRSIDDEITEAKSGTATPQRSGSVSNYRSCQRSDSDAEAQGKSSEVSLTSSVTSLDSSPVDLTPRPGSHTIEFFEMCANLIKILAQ
T2 sequence (P54619 whole entry partner): as the sequence (P54619 whole entry partner, the tested form may be a part) above

EC50 (α2-KD A156T (AT) mutant): 70 nM
activation of α2-KD by LKB1 (α2-KD A156T (AT) mutant): 1.07 fold
AMPK activity in anti-FLAG immunoprecipitates (human AMPK-α2 (WT)): all activated AMPK
AMPK activity (AMPK-α1 AT mutant): greatly reduced
Structure (SMILES): CN(C)S(=O)(=O)c1ccc2c(c1)/C(=C/c1cc3c([nH]1)CCCC3)C(=O)N2 [SU6656]
AMPK activity (AMPK): robustly activated AMPK
fatty acid oxidation (mice): increased fatty acid oxidation
